This passage reports TGI results from PubChem BioAssay (NCI).

Holding throughout (experiment): growth of human tumour cells (NCI), 48 h
Assay [1] concerns NCI-H23 lung.
The subject of assay [2] is SR leukemia.
The subject of assay [3] is CCRF-CEM leukemia.
In assay [4] the test system is MDA-N.
In assay [5] the test system is OVCAR-8 ovarian.
Assay [6] concerns HL-60(TB) leukemia.
The test system of assay [7] is NCI/ADR-RES ovarian.
Assay [8] has as its system OVCAR-5 ovarian.
Assay [9] has as its system EKVX NSCLC.
The test system of assay [10] is ACHN renal.

Molecules are shown by their SMILES.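 How tested: cells in 96-well plates exposed to compound for 48 hours at five concentrations. TGI denotes the concentration required for complete inhibition of growth.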 A value given as a limit tells only on which side of the number the result lay.

On to `COC(=O)CN1c2nc(C#N)c(C#N)nc2N(CC(=O)OC)c2nc(C#N)c(C#N)nc21`, for which the TGI in assay [1] is more than 29.8 µM; in assay [2] it was 6.66 µM; in assay [3] it was more than 24.3 µM; in assay [4], more than 100 µM; in [5] it was more than 22.3 µM; in assay [6] it was 5.61 µM. Besides, the TGI in assay [7] was more than 100 µM; in [8], 22.6 µM; in assay [9], more than 51.3 µM; in assay [10] it was 5.72 µM.
In the case of `CCOC(=O)c1c(-c2ccccc2)c(-c2ccccc2)cn1C`, the TGI in assay [1], in assay [2], in assay [3], in assay [4], in assay [5] and in assay [6] was more than 10 µM in each case. Further, the TGI in assay [7], in [8], in [9] and in assay [10] was more than 10 µM in each case.
Take `Cc1ccc(CC[P+](=O)CCc2ccc(C)nc2)cn1`: the TGI in assay [1], in assay [2], in assay [3], in assay [4], in assay [5] and in [6] was more than 100 µM in each case. Further, the TGI in assay [7], in [8], in [9] and in [10] was more than 100 µM each time.
For `C[C@@H](Cl)[C@H]1CCCN(Cc2ccc(Br)cc2)C1`, the TGI in [1], in assay [2], in assay [3], in assay [4], in assay [5] and in [6] was more than 12.5 µM throughout. The TGI in [7], in assay [8], in assay [9] and in assay [10] was more than 12.5 µM each time.
`C=C1c2cc3c(cc2CC12Cc1cc4c(cc1C2=O)CCC4)CCC3` (stereo not given): the TGI in assay [1], in assay [2], in [3], in [4], in [5] and in assay [6] was more than 100 µM each time. In addition, the TGI in [7], in assay [8], in [9] and in assay [10] was more than 100 µM in each case.
Turning to `C/C1=C\CC[C@@]2(C)O[C@@H]2C[C@@H](C2(C)CO2)CC/C(C)=C/CC1` (stereo not given in full), the TGI in assay [1] is 48.8 µM; in assay [2] it was more than 100 µM; in [3] it was more than 100 µM; in assay [4], 69.7 µM; in [5], 39.6 µM; in assay [6], 71.9 µM. Besides, the TGI in assay [7] turned out to be 46.8 µM; in assay [8], 50 µM; in assay [9] it was 36.1 µM; in [10], 35.1 µM.
In the case of `C(/C=C(\Nc1ccccc1)C12CC3CC(CC(C3)C1)C2)=Nc1ccccc1`, the TGI in assay [1] stood at 36.8 µM; in [2], 30.4 µM; in assay [3], 8.38 µM; in assay [4] it was 30.9 µM; in assay [5], 49.8 µM; in [6] it was 32.1 µM. Further, the TGI amounted to 42.5 µM in assay [7], 34.5 µM in assay [8], 39.4 µM in assay [9] and 26.4 µM in [10].
`c1csc(-c2ccc(-c3cccs3)c3nsnc23)c1`: the TGI was more than 68.4 µM in assay [1]; 39.9 µM in [2]; 31.5 µM in [3]; more than 73.4 µM in assay [4]; more than 93.2 µM in assay [5]; 27.1 µM in assay [6]. For the same compound, the TGI in [7] is more than 83.7 µM; in assay [8], more than 100 µM; in assay [9], more than 100 µM; in [10], more than 100 µM.
For the compound `O=c1[nH]cnc2c1ncn2[C@@H]1C[C@@H]1CO`, the TGI in assay [1], in [2], in assay [3], in [4], in assay [5] and in [6] was more than 100 µM each time. Moreover, the TGI in assay [7], in assay [8], in assay [9] and in [10] was more than 100 µM throughout.
For `O=C(Nc1ccccc1F)c1cc2ccc(O)cc2oc1=Nc1ccccc1F`, the TGI in [1] was found to be 4.52 µM; in [2], 5.37 µM; in assay [3], 3.79 µM; in assay [4], 5.27 µM; in assay [5], 3.36 µM; in assay [6], 4.54 µM. The TGI in assay [7] worked out at 5.93 µM; in assay [8], 15.3 µM; in [9], 6.01 µM; in assay [10], 5.3 µM.
In the case of `CCOC(=O)C(Cl)(Cl)/S(=N\S(=O)(=O)c1ccccc1)NC(=O)c1ccccc1` (stereo not given), the TGI in assay [1], in [2], in assay [3], in assay [4], in assay [5] and in assay [6] was more than 100 µM in each case. Also, the TGI in assay [7], in assay [8], in assay [9] and in assay [10] was more than 100 µM in each case.
On to `S=c1[nH]c2ccc(Br)cc2c(=S)s1`, for which the TGI was 82.6 µM in [1]; more than 100 µM in assay [2]; more than 100 µM in assay [3]; 54 µM in assay [4]; more than 100 µM in [5]; 62.4 µM in assay [6]. Further, the TGI in assay [7] was more than 100 µM; in assay [8], 60.4 µM; in [9], 91.3 µM; in assay [10], 56.7 µM.
`O=C(O)c1cc(-c2ccc3c(O)c(O)ccc3c2)ccc1O`: the TGI in assay [1] is more than 75 µM; in assay [2] it was 42 µM; in assay [3], 33.6 µM; in [4], more than 75 µM; in assay [5], more than 75 µM; in [6] it was 53.5 µM. Further, the TGI is more than 75 µM in assay [7], 26.2 µM in assay [8], more than 75 µM in assay [9] and more than 75 µM in assay [10].
Regarding `CCCCNC(=S)N/N=C/c1cccc(C)n1`, the TGI in assay [1] was more than 100 µM; in assay [2] it was more than 100 µM; in [3], 40.2 µM; in assay [4], more than 100 µM; in [5], more than 100 µM; in assay [6], more than 100 µM. In addition, the TGI was more than 100 µM in assay [7], more than 100 µM in assay [8], more than 100 µM in [9] and 68 µM in [10].
On to `COc1ccc(/C=C2\C[C@H]3[C@@H]4CCC5=C/C(=N/O)CC[C@]5(C)[C@H]4CC[C@]3(C)\C2=N\O)cc1OC`, for which the TGI is more than 100 µM in [1]; more than 100 µM in assay [2]; more than 100 µM in [3]; more than 100 µM in assay [4]; more than 100 µM in assay [5]; 76.8 µM in assay [6]. Also, the TGI in assay [7] was more than 100 µM; in assay [8], more than 100 µM; in assay [9], 32 µM; in assay [10] it was more than 100 µM.
As to `COc1ccc(S(=O)(=O)N2C(=O)CCC2C(=O)NN)cc1` (stereo not given), the TGI in [1], in assay [2], in [3], in assay [4], in assay [5] and in assay [6] was more than 100 µM each time. Moreover, the TGI in [7], in assay [8], in assay [9] and in assay [10] was more than 100 µM each time.
With `NNC1=N/C(=C\c2ccco2)C(Cl)=N1`, the TGI in assay [1] is more than 100 µM; in [2] it was 72.1 µM; in [3], more than 100 µM; in [4], more than 100 µM; in assay [5], more than 100 µM; in [6], 51.4 µM. The TGI in assay [7], in assay [8], in assay [9] and in assay [10] was more than 100 µM each time.
On to `Cc1c(N2C(=O)C(Cl)C2c2ccc(Cl)cc2)c(=O)n(-c2ccccc2)n1C` (stereo not given), for which the TGI is 85.1 µM in [1]; more than 100 µM in [2]; more than 100 µM in assay [3]; 81.3 µM in [4]; more than 100 µM in assay [5]; more than 100 µM in [6]. Further, the TGI in assay [7] was more than 100 µM; in assay [8] it was more than 100 µM; in assay [9] it was more than 100 µM; in [10] it was 83.2 µM.
With `c1ccc2c(c1)c1c(n2CCOCCN2CCOCC2)CCCC1`, the TGI was more than 100 µM in [1]; more than 100 µM in [2]; 69.4 µM in assay [3]; more than 100 µM in assay [4]; more than 100 µM in [5]; 51.9 µM in assay [6]. For the same compound, the TGI was 54.9 µM in assay [7], more than 100 µM in assay [8], more than 100 µM in assay [9] and more than 100 µM in assay [10].
Consider `O=C(CNc1c(Cl)cccc1Cl)NC1C=Cc2ccc(S(=O)(=O)Nc3c(Cl)cccc3Cl)cc2C1=O` (stereo not given), for which the TGI in assay [1], in assay [2], in assay [3], in assay [4], in assay [5] and in assay [6] was more than 100 µM throughout. Further, the TGI in assay [7], in [8], in [9] and in assay [10] was more than 100 µM throughout.
